Values of other authors in article PMC5693832 (Ophthalmology and Therapy, 2017).

What was measured:
[1] = tested on: platelets; conditions: humans
[2] = tested on: IOP in healthy Japanese subjects; conditions: 0.024% once daily for 14 days
[3] = tested on: diurnal IOP in POAG or OHT patients; conditions: 0.006% to 0.040%, 28 days
[4] = tested on: IOP; conditions: 0.024%, summary of the clinical trials
[5] = tested on: IOP over a 24-h diurnal time period; conditions: for IOP reduction over the 24 h period, in words: 24-h diurnal period
[6] = tested on: IOP in Japanese subjects with POAG or OHT; conditions: 0.024% every evening

| Compound | NO release after oral administration [1] | most common adverse events [2] | severity of adverse events [2] | adverse events (pupil dilation, blurred vision) [3] | efficacy (change from baseline mean diurnal IOP), dose relation [3] | additional IOP reduction versus latanoprost and timolol monotherapy [4] | IOP reduction over the 24 h period, in words [5] | post treatment mean IOP (SD), nighttime ([5]; nighttime, baseline 25.7 (3.8) mmHg) | IOP (SD) at 52 weeks [6] | IOP reduction by 52 weeks from baseline ([6]; baseline 19.6 (2.9) mmHg) [%] |
| --- | --- | --- | --- | --- | --- | --- | --- | --- | --- | --- |
| CC(=O)Oc1ccccc1C(=O)Oc1cccc(CO[N+](=O)[O-])c1 [NCX 4016, 2-(acetyloxy)benzoic acid-3-[(nitrooxy)methyl]phenyl ester] | capable of releasing NO | – | – | – | – | – | – | – | – | – |
| O=C(CCC/C=C\C[C@@H]1[C@@H](CC[C@@H](O)CCc2ccccc2)[C@H](O)C[C@@H]1O)OCCCCO[N+](=O)[O-] [latanoprostene bunod] | – | punctate keratitis and conjunctival hyperemia | mild | neither pupil dilation nor blurred vision were reported as adverse events | dose-dependent | 1–2 mmHg | sustained IOP reduction during the 24 h period | 23.2 (3.4) mmHg | 14.4 (2.7) mmHg | 26 |
| CC(C)(C)NC[C@H](O)COc1nsnc1N1CCOCC1 [timolol] | – | – | – | – | – | – | primarily effective during the daytime | – | – | – |
